Source: ChEMBL document CHEMBL3407429, “Multifunctional tacrine-trolox hybrids for the treatment of Alzheimer's disease with cholinergic, antioxidant, neuroprotective and hepatoprotective properties” (Eur J Med Chem, 2015)
Active and inactive are the calls of the source. The calls are words filed in the database; no cut-off is given here.

Tests used:
Acetylcholinesterase [1] = molecular target: Acetylcholinesterase (Electrophorus electricus, UniProt O42275)
Description: Inhibition of electric eel AChE using acetylthiocholine iodide as substrate preincubated for 6 mins before substrate addition by Ellman's method

Cholinesterase [2] = molecular target: Cholinesterase (Equus caballus, UniProt P81908)
Description: Inhibition of equine serum BuChE using S-butyrylthiocholine iodide as substrate preincubated for 6 mins before substrate addition by Ellman's method

Acetylcholinesterase [3] = molecular target: Acetylcholinesterase (Homo sapiens, UniProt P22303)
Description: Inhibition of human erythrocyte AChE using acetylthiocholine iodide as substrate preincubated for 6 mins before substrate addition by Ellman's method

Cholinesterase [4] = molecular target: Cholinesterase (Homo sapiens, UniProt P06276)
Description: Inhibition of human serum BuChE using S-butyrylthiocholine iodide as substrate preincubated for 6 mins before substrate addition by Ellman's method

in vitro = settings: PAMPA
Description: Permeability of the compound in PBS and EtOH by PAMPA method

[5] = molecular target: Acetylcholinesterase (Electrophorus electricus) (UniProt O42275); assay: Mixed-type inhibition of electric eel AChE using acetylthiocholine iodide as substrate by Lineweaver-Burk double reciprocal plot method
PC-12 [6] = assay: Neuroprotective activity against H2O2-induced oxidative stress in rat PC12 cells assessed as inhibition of cell death preincubated at 3.125 to 6.25 uM for 2 hrs before H2O2 addition measured after 24 hrs by MTT assay; format: functional, cell-based
PC-12 [7] = assay: Neuroprotective activity against H2O2-induced oxidative stress in rat PC12 cells assessed as cell viability preincubated at 12.5 to 6.25 uM for 2 hrs before H2O2 addition measured after 24 hrs by MTT assay; format: functional, cell-based
[8] = Cytotoxicity against rat PC12 cells assessed as reduction in cell viability at 1.563 to 12.5 uM after 48 hrs by MTT assay; format: cell-based; settings: pc-12, 48 h
Rattus norvegicus [9] = assay: Hepatotoxicity in Sprague-Dawley rat assessed as increase in aspartate aminotransferase activity in serum at 6 umol/100g body weight, ip measured up to 72 hrs; format: toxicity, organism-based; settings: in vivo
Rattus norvegicus [10] = assay: Hepatotoxicity in Sprague-Dawley rat assessed as increase in alanine aminotransferase activity in serum at 6 umol/100g body weight, ip measured up to 72 hrs; format: toxicity, organism-based; settings: in vivo
Rattus norvegicus [11] = assay: Hepatotoxicity in Sprague-Dawley rat at 6 umol/100g body weight, ip measured after 24 hrs by histomorphological study; format: toxicity, organism-based; settings: in vivo

Sequence of Cholinesterase (Homo sapiens, UniProt P06276) (P06276 whole entry): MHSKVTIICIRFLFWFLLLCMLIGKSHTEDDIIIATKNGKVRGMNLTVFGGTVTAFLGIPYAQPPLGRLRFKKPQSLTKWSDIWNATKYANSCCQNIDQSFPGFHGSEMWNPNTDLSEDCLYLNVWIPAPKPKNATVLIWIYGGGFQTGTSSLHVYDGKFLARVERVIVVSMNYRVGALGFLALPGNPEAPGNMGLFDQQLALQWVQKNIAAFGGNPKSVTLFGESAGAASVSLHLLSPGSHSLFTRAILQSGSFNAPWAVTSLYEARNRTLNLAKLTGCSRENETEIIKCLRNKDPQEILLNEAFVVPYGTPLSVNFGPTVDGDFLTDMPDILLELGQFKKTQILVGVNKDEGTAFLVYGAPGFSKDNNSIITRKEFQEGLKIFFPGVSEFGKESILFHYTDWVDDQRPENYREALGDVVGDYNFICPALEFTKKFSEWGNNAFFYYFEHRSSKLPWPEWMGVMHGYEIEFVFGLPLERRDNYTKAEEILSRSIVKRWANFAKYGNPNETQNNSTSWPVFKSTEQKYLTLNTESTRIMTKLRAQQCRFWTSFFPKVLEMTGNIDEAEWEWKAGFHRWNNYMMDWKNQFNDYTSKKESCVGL
Sequence of Cholinesterase (Equus caballus, UniProt P81908) (P81908 whole entry): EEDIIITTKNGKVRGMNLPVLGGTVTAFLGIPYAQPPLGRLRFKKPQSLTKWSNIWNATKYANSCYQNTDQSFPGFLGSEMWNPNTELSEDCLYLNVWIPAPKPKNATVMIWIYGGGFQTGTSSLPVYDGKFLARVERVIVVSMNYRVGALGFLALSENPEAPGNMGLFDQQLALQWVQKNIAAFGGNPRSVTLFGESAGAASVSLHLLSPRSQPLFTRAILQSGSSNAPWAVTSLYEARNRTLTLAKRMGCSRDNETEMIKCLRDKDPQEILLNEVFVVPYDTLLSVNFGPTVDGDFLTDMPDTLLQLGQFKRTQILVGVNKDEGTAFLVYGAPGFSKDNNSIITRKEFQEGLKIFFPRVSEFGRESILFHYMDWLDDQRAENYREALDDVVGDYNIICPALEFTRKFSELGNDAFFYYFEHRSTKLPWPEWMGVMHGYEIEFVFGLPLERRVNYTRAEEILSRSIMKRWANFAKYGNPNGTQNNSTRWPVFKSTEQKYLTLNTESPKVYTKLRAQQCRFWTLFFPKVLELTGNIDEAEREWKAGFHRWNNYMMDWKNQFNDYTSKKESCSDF
Sequence of Acetylcholinesterase (Electrophorus electricus, UniProt O42275) (O42275 whole entry): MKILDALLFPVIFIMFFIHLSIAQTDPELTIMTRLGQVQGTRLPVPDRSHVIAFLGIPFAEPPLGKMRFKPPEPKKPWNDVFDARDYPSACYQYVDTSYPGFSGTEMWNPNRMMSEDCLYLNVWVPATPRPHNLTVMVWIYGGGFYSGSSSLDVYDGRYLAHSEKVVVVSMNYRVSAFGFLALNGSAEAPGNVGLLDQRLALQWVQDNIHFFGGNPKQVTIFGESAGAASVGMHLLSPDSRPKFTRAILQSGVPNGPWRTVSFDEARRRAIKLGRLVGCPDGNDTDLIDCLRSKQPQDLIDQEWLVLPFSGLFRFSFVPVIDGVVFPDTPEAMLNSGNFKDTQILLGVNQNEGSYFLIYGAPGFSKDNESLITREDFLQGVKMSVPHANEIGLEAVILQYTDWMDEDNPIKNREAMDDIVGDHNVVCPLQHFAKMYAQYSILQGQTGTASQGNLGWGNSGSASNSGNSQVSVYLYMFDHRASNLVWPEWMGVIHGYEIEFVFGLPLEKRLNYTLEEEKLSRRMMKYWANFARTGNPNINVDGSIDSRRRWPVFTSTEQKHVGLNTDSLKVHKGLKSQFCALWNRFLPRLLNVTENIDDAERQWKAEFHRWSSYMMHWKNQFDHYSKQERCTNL
Sequence of Acetylcholinesterase (Homo sapiens, UniProt P22303) (P22303 whole entry): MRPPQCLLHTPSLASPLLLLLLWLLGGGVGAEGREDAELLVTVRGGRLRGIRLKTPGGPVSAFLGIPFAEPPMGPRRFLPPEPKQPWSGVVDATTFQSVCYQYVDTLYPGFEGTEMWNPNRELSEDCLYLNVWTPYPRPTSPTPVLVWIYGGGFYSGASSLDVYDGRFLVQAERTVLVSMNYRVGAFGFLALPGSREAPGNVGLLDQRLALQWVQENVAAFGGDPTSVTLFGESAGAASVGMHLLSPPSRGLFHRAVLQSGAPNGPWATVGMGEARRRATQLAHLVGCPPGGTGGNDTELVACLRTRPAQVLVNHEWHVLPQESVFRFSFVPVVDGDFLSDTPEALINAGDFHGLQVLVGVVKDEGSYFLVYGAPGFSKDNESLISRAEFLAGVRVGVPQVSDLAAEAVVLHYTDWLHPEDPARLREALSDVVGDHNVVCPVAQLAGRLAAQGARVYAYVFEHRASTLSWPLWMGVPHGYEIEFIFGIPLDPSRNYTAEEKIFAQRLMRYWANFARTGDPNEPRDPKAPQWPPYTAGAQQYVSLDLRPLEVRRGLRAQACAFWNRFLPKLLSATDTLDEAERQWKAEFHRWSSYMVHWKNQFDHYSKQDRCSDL
Sequence of Acetylcholinesterase (Electrophorus electricus) (O42275 24-633 limits assumed): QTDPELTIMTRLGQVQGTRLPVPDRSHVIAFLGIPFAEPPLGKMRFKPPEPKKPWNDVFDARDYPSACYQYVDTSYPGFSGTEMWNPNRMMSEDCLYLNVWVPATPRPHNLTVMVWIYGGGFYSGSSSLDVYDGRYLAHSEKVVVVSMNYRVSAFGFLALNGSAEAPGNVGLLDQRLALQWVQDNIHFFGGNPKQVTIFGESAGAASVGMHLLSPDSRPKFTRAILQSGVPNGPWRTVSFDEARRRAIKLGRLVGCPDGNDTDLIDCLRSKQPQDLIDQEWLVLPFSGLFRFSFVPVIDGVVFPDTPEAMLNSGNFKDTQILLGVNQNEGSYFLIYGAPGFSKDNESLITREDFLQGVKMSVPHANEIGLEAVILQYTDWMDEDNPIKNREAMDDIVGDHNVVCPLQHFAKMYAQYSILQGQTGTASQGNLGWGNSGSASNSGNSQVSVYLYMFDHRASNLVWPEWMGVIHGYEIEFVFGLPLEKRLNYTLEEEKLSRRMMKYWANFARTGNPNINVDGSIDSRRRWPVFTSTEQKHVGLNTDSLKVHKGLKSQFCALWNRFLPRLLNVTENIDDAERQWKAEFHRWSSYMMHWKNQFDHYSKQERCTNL

Compound	IC50 (Acetylcholinesterase [1]) [nM]	IC50 (Cholinesterase [2]) [nM]	IC50 (Acetylcholinesterase [3]) [nM]	IC50 (Cholinesterase [4]) [nM]	IC50 [nM]	Papp (in vitro) [×10⁻⁶ cm/s]	other results
Cc1c(C)c2c(c(C)c1O)CCC(C)(C(=O)NCCCCNc1c3c(nc4ccccc14)CCCC3)O2 (configuration not stated)	558	15.6	535	5.2	44.2		
CCn1cc(C(=O)O)c(=O)c2cc(F)c(N3CCNC(C)C3)c(F)c21 (configuration not stated) [LOMEFLOXACIN]						0.8	
Cc1c(C)c2c(c(C)c1O)CCC(C)(C(=O)NCCCCCCCCCCNc1c3c(nc4ccccc14)CCCC3)O2 (configuration not stated)	387	263	453	110	43.2		
Cc1c(C)c2c(c(C)c1O)CCC(C)(C(=O)NCCCCCCCCNc1c3c(nc4ccccc14)CCCC3)O2 (configuration not stated)	228	151	226	34.7	47.3		
Cc1c(C)c2c(c(C)c1O)CCC(C)(C(=O)NCCNc1c3c(nc4ccccc14)CCCC3)O2 (configuration not stated)	150	41.3	284	56.3	30.4		
CN1C(C(=O)Nc2ccccn2)=C(O)c2ccccc2S1(=O)=O [PIROXICAM]						0.6	
Cc1c(C)c2c(c(C)c1O)CCC(C)(C(=O)O)O2 (configuration not stated) [TROLOX]					35.6		
Cc1c(C)c2c(c(C)c1O)CCC(C)(C(=O)NCCCCCCCNc1c3c(nc4ccccc14)CCCC3)O2 (configuration not stated)	92.4	61.7	144	19.2	46.9		
Cc1c(C)c2c(c(C)c1O)CCC(C)(C(=O)NCCCCCCNc1c3c(nc4ccccc14)CCCC3)O2 (configuration not stated)	9.8	22.2	23.5	20.5	48.7	8.87	inhibition [5]: Active; inhibition (PC-12 [6]): Active; inhibition (PC-12 [7]): inactive; Activity [8]: Non-toxic; Activity (Rattus norvegicus [9]): Non-toxic; Activity (Rattus norvegicus [10]): Non-toxic; Activity (Rattus norvegicus [11]): Non-toxic
Cc1c(C)c2c(c(C)c1O)CCC(C)(C(=O)NCCCCCNc1c3c(nc4ccccc14)CCCC3)O2 (configuration not stated)	250	35.4	215	10.2	40.7		
C[C@]12CCC(=O)C=C1CC[C@@H]1[C@@H]2CC[C@@]2(C)[C@H]1CC[C@]2(O)C(=O)CO [CORTODOXONE]						2.5	
